# Laboratory results from ChEMBL document CHEMBL6071211, “Invention of VH-937, a Potent HIV-1 Maturation Inhibitor with the Potential for Infrequent Oral Dosing in Humans” (ACS Med Chem Lett, 2024).
# Tests used:
# [1] = Clearance in rat at 1 mg/kg, iv; format: ADME, organism-based; details: in vivo
# [2] = Elimination half life in mouse at 1 mg/kg, iv; format: ADME, organism-based; details: in vivo, read-out: beta t1/2 (converted)
# [3] = AUC (infinity) in dog at 5 mg/kg, po; format: ADME, organism-based, Canis lupus familiaris; details: in vivo
# [4] = Elimination half life in rat at 5 mg/kg, po; format: ADME, organism-based; details: in vivo, read-out: beta t1/2 (converted)
# [5] = Oral bioavailability in Cynomolgus monkey at 5 mg/kg; format: ADME, organism-based, Macaca fascicularis; details: in vivo
# [6] = Oral bioavailability in dog at 5 mg/kg; format: ADME, organism-based, Canis lupus familiaris; details: in vivo
# [7] = tested on: Human immunodeficiency virus 1; experiment: In vitro antiviral activity against fully replicating HIV1 harboring Gag V370A/deltaV371 mutant by multicycle assay; format: functional, organism-based
# [8] = Elimination half life in mouse at 5 mg/kg, po; format: ADME, organism-based; details: in vivo, read-out: beta t1/2 (converted)
# [9] = tested on: Human immunodeficiency virus 1; experiment: In vitro antiviral activity against fully replicating HIV1 harboring Gag A364V mutant assessed as maximum percent inhibition by multicycle assay relative to control; format: functional
# [10] = tested on: Human immunodeficiency virus 1; experiment: In vitro antiviral activity against fully replicating HIV1 harboring Gag A364V mutant by multicycle assay; format: functional, organism-based
# [11] = Metabolic stability in rat liver microsomes assessed as half life; format: ADME, Microsome
# [12] = AUC (infinity) in rat at 1 mg/kg, iv; format: ADME, organism-based; details: in vivo
# [13] = tested on: Human immunodeficiency virus 1; experiment: In vitro antiviral activity against fully replicating wild type HIV1 NL4-3; format: functional, organism-based; details: Human immunodeficiency virus 1, NL4-3
# [14] = tested on: Human immunodeficiency virus 1; experiment: In vitro antiviral activity against fully replicating pseudotype HIV1 harboring Gag V3621/V370A mutant by single cycle assay; format: functional, organism-based
# [15] = Half life in normal healthy human volunteers plasma at 10 mg for 15 days and followed by 30 mg; format: ADME, cell-free; details: time 15 day
# [16] = AUC (infinity) in mouse at 5 mg/kg, po; format: ADME, organism-based; details: in vivo
# [17] = biological target: Cytochrome P450 2C9 (Homo sapiens, UniProt P11712); experiment: Inhibition of CYP2C9 (unknown origin); format: ADME
# Cytochrome P450 2C9, sequence (P11712 whole entry): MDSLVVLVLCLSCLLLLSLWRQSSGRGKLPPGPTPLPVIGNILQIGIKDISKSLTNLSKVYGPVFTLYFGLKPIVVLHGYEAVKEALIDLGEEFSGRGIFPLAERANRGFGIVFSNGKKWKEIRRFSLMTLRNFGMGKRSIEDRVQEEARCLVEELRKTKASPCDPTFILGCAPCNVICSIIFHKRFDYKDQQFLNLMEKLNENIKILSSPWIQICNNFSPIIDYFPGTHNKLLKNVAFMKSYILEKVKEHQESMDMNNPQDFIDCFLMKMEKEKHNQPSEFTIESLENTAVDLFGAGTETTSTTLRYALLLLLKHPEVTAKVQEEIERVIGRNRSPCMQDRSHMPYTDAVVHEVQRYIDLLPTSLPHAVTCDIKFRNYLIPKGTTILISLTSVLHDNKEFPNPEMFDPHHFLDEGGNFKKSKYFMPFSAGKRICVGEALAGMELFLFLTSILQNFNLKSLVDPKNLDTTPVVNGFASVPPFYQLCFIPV
# [18] = tested on: Human immunodeficiency virus 1; experiment: Ratio of EC50 for antiviral activity against fully replicating HIV1 harboring Gag deltaV370 mutant by multicycle assay to EC50 for antiviral activity against fully replicating wild type HIV1 NLRepRluc-P373S by multicycle assay; format: functional
# [19] = tested on: Human immunodeficiency virus 1; experiment: Ratio of EC50 for antiviral activity against fully replicating pseudotype HIV1 harboring to Gag T332S/[…]/prR41G mutant by single cycle assay to EC50 for antiviral activity against fully replicating wild type pseudotype HIV1 NLRepRluc-P373S by single cycle assay; format: functional
# [20] = tested on: Human immunodeficiency virus 1; experiment: Ratio of EC50 for antiviral activity against fully replicating HIV1 harboring Gag V370A/deltaV371 by multicycle assay to EC50 for antiviral activity against fully replicating wild type HIV1 NLRepRluc-P373S by multicycle assay; format: functional
# [21] = tested on: Human immunodeficiency virus 1; experiment: In vitro antiviral activity against fully replicating wild type HIV1 NLRepRluc-P373S assessed as maximum percent inhibition by multicycle assay relative to control; format: functional
# [22] = Volume of distribution at steady state in rat at 1 mg/kg, iv; format: ADME, organism-based; details: in vivo, read-out: Vdss
# [23] = Elimination half life in rat at 1 mg/kg, iv; format: ADME, organism-based; details: in vivo, read-out: beta t1/2 (converted)
# [24] = tested on: Human immunodeficiency virus 1; experiment: In vitro antiviral activity against fully replicating HIV1 harboring Gag deltaV370 mutant assessed as maximum percent inhibition by multicycle assay relative to control; format: functional
# [25] = Aqueous solubility of compound in fed state simulated intestinal fluid (FeSSIF); format: physicochemical; details: simulated gi fluid
# [26] = Aqueous solubility of compound in fasted state simulated intestinal fluid (FaSSIF) at pH 6.6; format: physicochemical
# [27] = biological target: Cytochrome P450 2D6 (Homo sapiens, UniProt P10635); experiment: Inhibition of CYP2D6 (unknown origin); format: ADME
# Cytochrome P450 2D6, sequence (P10635 whole entry): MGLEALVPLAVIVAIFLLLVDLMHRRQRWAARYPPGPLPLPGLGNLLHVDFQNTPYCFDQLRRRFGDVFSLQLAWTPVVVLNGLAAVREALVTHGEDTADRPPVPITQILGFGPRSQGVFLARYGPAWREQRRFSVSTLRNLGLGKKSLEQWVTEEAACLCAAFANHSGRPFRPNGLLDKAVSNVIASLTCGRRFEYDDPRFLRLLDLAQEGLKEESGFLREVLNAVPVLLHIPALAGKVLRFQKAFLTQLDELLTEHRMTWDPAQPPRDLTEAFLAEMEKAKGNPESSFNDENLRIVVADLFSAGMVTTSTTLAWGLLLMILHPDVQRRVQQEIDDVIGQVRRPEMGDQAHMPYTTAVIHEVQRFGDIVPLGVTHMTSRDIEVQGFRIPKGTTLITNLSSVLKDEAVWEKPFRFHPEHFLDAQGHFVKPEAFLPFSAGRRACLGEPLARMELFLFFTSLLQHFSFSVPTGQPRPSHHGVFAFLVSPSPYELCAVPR
# [28] = Toxicity in normal healthy human volunteers assessed as adverse effect at 10 mg for 15 days and followed by 30 mg; details: in vivo, 360 h, time 15 day
# [29] = Elimination half life in Cynomolgus monkey at 5 mg/kg, po; format: ADME, organism-based, Macaca fascicularis; details: in vivo, read-out: beta t1/2 (converted)
# [30] = tested on: Human immunodeficiency virus 1; experiment: In vitro antiviral activity against HIV1 subtype A clinical isolate UG275; format: functional, organism-based; details: Human immunodeficiency virus 1, UG275
# [31] = tested on: Human immunodeficiency virus 1; experiment: In vitro antiviral activity against fully replicating HIV1 harboring Gag T332S/[…]/prR41G mutant assessed as maximum percent inhibition by multicycle assay relative to control; format: functional
# [32] = Volume of distribution at steady state in mouse at 1 mg/kg, iv; format: ADME, organism-based; details: in vivo, read-out: Vdss
# [33] = tested on: Human immunodeficiency virus 1; experiment: Ratio of EC50 for antiviral activity against fully replicating pseudotype HIV1 harboring Gag V370A mutant by single cycle assay to EC50 for antiviral activity against fully replicating wild type pseudotype HIV1 NLRepRluc-P373S by single cycle assay; format: functional
# [34] = biological target: Human immunodeficiency virus type 1 Gag protein (Human immunodeficiency virus 1) (UniProt Q77YG1); experiment: Binding affinity to HIV1 wild type Gag mutant assessed as dissociation half life by virus-like particle (VLP) assay
# [35] = biological target: T1, Cytochrome P450 1A2 (Homo sapiens, UniProt P05177); experiment: Inhibition of CYP1A2 (unknown origin); format: ADME
# T1 sequence (P05177 whole entry): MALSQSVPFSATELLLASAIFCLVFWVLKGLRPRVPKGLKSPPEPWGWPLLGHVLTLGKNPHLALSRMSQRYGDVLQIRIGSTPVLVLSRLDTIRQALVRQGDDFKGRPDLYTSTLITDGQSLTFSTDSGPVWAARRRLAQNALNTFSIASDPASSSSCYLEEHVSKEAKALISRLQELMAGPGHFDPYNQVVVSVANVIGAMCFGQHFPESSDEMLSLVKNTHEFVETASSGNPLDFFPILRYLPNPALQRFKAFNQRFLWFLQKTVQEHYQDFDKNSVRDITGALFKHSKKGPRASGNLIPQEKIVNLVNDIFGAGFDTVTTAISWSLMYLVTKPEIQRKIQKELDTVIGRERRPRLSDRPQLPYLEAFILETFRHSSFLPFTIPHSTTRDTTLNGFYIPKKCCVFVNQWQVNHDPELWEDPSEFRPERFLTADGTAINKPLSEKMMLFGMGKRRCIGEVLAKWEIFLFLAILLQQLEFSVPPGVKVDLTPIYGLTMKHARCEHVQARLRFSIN
# [36] = tested on: Human immunodeficiency virus 1; experiment: In vitro antiviral activity against fully replicating wild type pseudotype HIV1 NLRepRluc-P373S assessed as maximum percent inhibition by single cycle assay relative to control; format: functional
# [37] = tested on: Human immunodeficiency virus 1; experiment: Ratio of EC50 for antiviral activity against fully replicating pseudotype HIV1 harboring Gag deltaV370 mutant by single cycle assay to EC50 for antiviral activity against fully replicating wild type pseudotype HIV1 NLRepRluc-P373S by single cycle assay; format: functional
# [38] = Clearance in Cynomolgus monkey at 2 mg/kg, iv; format: ADME, organism-based, Macaca fascicularis; details: in vivo
# [39] = Elimination half life in Cynomolgus monkey at 2 mg/kg, iv; format: ADME, organism-based, Macaca fascicularis; details: in vivo, read-out: beta t1/2 (converted)
# [40] = tested on: Human immunodeficiency virus 1; experiment: In vitro antiviral activity against fully replicating HIV1 harboring Gag V370A mutant by multicycle assay; format: functional, organism-based
# [41] = tested on: Human immunodeficiency virus 1; experiment: In vitro antiviral activity against fully replicating pseudotype HIV1 harboring Gag A364V mutant by single cycle assay; format: functional, organism-based
# [42] = tested on: Human immunodeficiency virus 1; experiment: In vitro antiviral activity against fully replicating HIV1 harboring Gag […]/V370A mutant by multicycle assay; format: functional, organism-based
smiles,measurement,setting,value
C=C(C)[C@@H]1CC[C@]2(NCCN3CCS(=O)(=O)CC3)CC[C@]3(C)[C@H](CC[C@@H]4[C@@]5(C)CC=C(C6=CC[C@](COc7ncccc7C#N)(C(=O)O)CC6)C(C)(C)[C@@H]5CC[C@]43C)[C@@H]12,clearance,[1],1.23 mL/min/kg
same,half-life,[2],10.9 h
same,AUC(0-inf),[3],120 µM·h
same,half-life,[4],8.6 h
same,bioavailability,[5],43.5%
same,bioavailability,[6],59%
same,EC50,[7],5 nM
same,half-life,[8],14.5 h
same,Imax,[9],95.2%
same,EC50,[10],5 nM
same,half-life,[11],> 2 h
same,AUC(0-inf),[12],16.1 µM·h
same,EC50,[13],1.8 nM
same,EC50,[14],11 nM
same,half-life,[15],67 h
same,AUC(0-inf),[16],73.8 µM·h
same,IC50,[17],> 4400 nM
same,Ratio EC50,[18],2
same,Ratio EC50,[19],4.8
same,Ratio EC50,[20],2.5
same,Imax,[21],99.1%
same,Vd,[22],0.87 L/kg
same,half-life,[23],8.6 h
same,Imax,[24],97.6%
same,solubility,[25],363 µg/mL
same,solubility,[26],19000 µg/mL
same,IC50,[27],> 4400 nM
same,Activity,[28],Non-Toxic
same,half-life,[29],11.4 h
same,EC50,[30],2 nM
same,Imax,[31],98%
same,Vd,[32],0.53 L/kg
same,Ratio EC50,[33],1.2
same,T1/2,[34],68.8 h
same,IC50,[35],> 4400 nM
same,Imax,[36],99%
same,Ratio EC50,[37],2.4
same,clearance,[38],0.32 mL/min/kg
same,half-life,[39],12.3 h
same,EC50,[40],4 nM
same,EC50,[41],32 nM
same,EC50,[42],2 nM
